# Source: US7709498B2, “Quinoline derivatives as antibacterial agents” (Janssen Pharmaceutica N.V., priority 2005, dated 2010)
# Tests used:
# Format in all cases: cell-based
# [1] = system: Staphylococcus aureus (ATCC25923); test: Microtitre plate assay, IC90 determination, STA 25923; conditions: 90% inhibitory concentration for bacterial growth, 37° C., resazurin fluorescence; for IC90 (μg/ml) STA 25923: 24 hours
# Experimental: (§1) The bacteria used in this study were grown overnight in flasks containing 100 ml Mueller-Hinton Broth (Becton Dickinson—cat. no. 275730) in sterile de-ionized water, with shaking, at 37° C. Stocks (0.5 ml/tube) were stored at −70° C. until use. Bacteria titrations were performed in microtiter plates to detect the TCID50, in which the TCID50 represents the dilution that gives rise to bacterial growth in 50% of inoculated cultures.
# (§2) In general, an inoculum level of approximately 100 TCID50 was used for susceptibility testing.
# (§3) Flat-bottom, sterile 96-well plastic microtiter plates were filled with 180 μl of sterile deionized water, supplemented with 0.25% BSA. Subsequently, stock solutions (7.8× final test concentration) of compounds were added in 45 μl volumes in column 2. Serial five-fold dilutions (45 μl in 180 μl) were made directly in the microtiter plates from column 2 to reach column 11. Untreated control samples with (column 1) and without (column 12) inoculum were included in each microtiter plate. Depending on the bacteria type, approximately 10 to 60 CFU per well of bacteria inoculum (100 TCID50), in a volume of 100 μl in 2.8× Mueller-Hinton broth medium, was added to the rows A to H, except column 12. The same volume of broth medium without inoculum was added to column 12 in row A to H. The cultures were incubated at 37° C. for 24 hours under a normal atmosphere (incubator with open air valve and continuous ventilation). At the end of incubation, one day after inoculation, the bacterial growth was quantitated fluorometrically. Therefore resazurin (0.6 mg/ml) was added in a volume of 20 μl to all wells 3 hours after inoculation, and the plates were re-incubated overnight. A change in colour from blue to pink indicated the growth of bacteria. The fluorescence was read in a computer-controlled fluorometer (Cytofluor Biosearch) at an excitation wavelength of 530 nm and an emission wavelength of 590 nm. The % growth inhibition achieved by the compounds was calculated according to standard methods. The IC90 (expressed in μg/ml) was defined as the 90% inhibitory concentration for bacterial growth.
# (§4) BSU 3639 means Bacillus subtilis (ATCC43639); ECO 25922 means Escherichia coli (ATCC25922); EFA 14506 means Enterococcus faecalis (ATCC14506); EFA 29212 means Enterococcus faecalis (ATCC29212); LMO 49594 means Listeria monocytogenes (ATCC49594); PAE 27853 means Pseudomonas aeruginosa (ATCC27853); SMU 33402 means Streptococcus mutans (ATCC33402); SPN 6305 means Streptococcus pneumoniae (ATCC6305); SPY 8668 means Streptococcus pyogens (ATCC8668); STA 43300 means Staphylococcus aureus (ATCC43300); STA 25923 means Staphylococcus aureus (ATCC25923); STA 29213 means Staphylococcus aureus (ATCC29213); STA RMETH means methicilline resistant Staphylococcus aureus (MRSA) (a clinical isolate from the University of Antwerp). ATCC means American type tissue culture.
# [2] = system: methicilline resistant Staphylococcus aureus (MRSA) (a clinical isolate from the University of Antwerp); test: Microtitre plate assay, IC90 determination, STA RMETH; conditions: 90% inhibitory concentration for bacterial growth, 37° C., resazurin fluorescence; for IC90 (μg/ml) STA RMETH: 24 hours
# Experimental: as §1, §2, §3, §4
# [3] = system: Streptococcus pneumoniae (ATCC6305); test: Microtitre plate assay, IC90 determination, SPN 6305; conditions: 90% inhibitory concentration for bacterial growth, 37° C., 24 hours, resazurin fluorescence
# Experimental: as §1, §2, §3, §4
# [4] = system: Pseudomonas aeruginosa (ATCC27853); test: Microtitre plate assay, IC90 determination, PAE 27853; conditions: 90% inhibitory concentration for bacterial growth, 37° C., 24 hours, resazurin fluorescence
# Experimental: as §1, §2, §3, §4
# [5] = system: Enterococcus faecalis (ATCC14506); test: Microtitre plate assay, IC90 determination, EFA 14506; conditions: 90% inhibitory concentration for bacterial growth, 37° C., 24 hours, resazurin fluorescence
# Experimental: as §1, §2, §3, §4
# [6] = system: Bacillus subtilis (ATCC43639); test: Microtitre plate assay, IC90 determination, BSU 43639; conditions: 90% inhibitory concentration for bacterial growth, 37° C., 24 hours, resazurin fluorescence
# Experimental: as §1, §2, §3, §4
# [7] = system: Enterococcus faecalis (ATCC29212); test: Microtitre plate assay, IC90 determination, EFA 29212; conditions: 90% inhibitory concentration for bacterial growth, 37° C., resazurin fluorescence; for IC90 (μg/ml) EFA 29212: 24 hours
# Experimental: as §1, §2, §3, §4
# [8] = system: Listeria monocytogenes (ATCC49594); test: Microtitre plate assay, IC90 determination, LMO 49594; conditions: 90% inhibitory concentration for bacterial growth, 37° C., 24 hours, resazurin fluorescence
# Experimental: as §1, §2, §3, §4
# [9] = system: Streptococcus pyogens (ATCC8668); test: Microtitre plate assay, IC90 determination, SPY 8668; conditions: 90% inhibitory concentration for bacterial growth, 37° C., 24 hours, resazurin fluorescence
# Experimental: as §1, §2, §3, §4
# [10] = system: Staphylococcus aureus (ATCC29213); test: Microtitre plate assay, IC90 determination, STA 29213; conditions: 90% inhibitory concentration for bacterial growth, 37° C., 24 hours, resazurin fluorescence
# Experimental: as §1, §2
# Flat-bottom, sterile 96-well plastic microtiter plates were filled with 180 μl of sterile deionized water, supplemented with 0.25% BSA. Subsequently, stock solutions (7.8× final test concentration) of compounds were added in 45 μl volumes in column 2. Serial five-fold dilutions (45 μl in 180 μl) were made directly in the microtiter plates from column 2 to reach column 11. Untreated control samples with (column 1) and without (column 12) inoculum were included in each microtiter plate. […] At the end of incubation, one day after inoculation, the bacterial growth was quantitated fluorometrically. […] The fluorescence was read in a computer-controlled fluorometer (Cytofluor Biosearch) at an excitation wavelength of 530 nm and an emission wavelength of 590 nm. The % growth inhibition achieved by the compounds was calculated according to standard methods. […]
# [11] = system: Streptococcus mutans (ATCC33402); test: Microtitre plate assay, IC90 determination, SMU 33402; conditions: 90% inhibitory concentration for bacterial growth, 37° C., 24 hours, resazurin fluorescence
# Experimental: as §1, §2, §3, §4
# [12] = system: Staphylococcus aureus (ATCC43300); test: Microtitre plate assay, IC90 determination, STA 43300; conditions: 90% inhibitory concentration for bacterial growth, 37° C., 24 hours, resazurin fluorescence
# Experimental: as §1, §2, §3, §4
Compound,IC90 (μg/ml) SPN 6305 [3],IC90 (μg/ml) PAE 27853 [4],IC90 (μg/ml) EFA 14506 [5],IC90 (μg/ml) BSU 43639 [6],IC90 (μg/ml) LMO 49594 [8],IC90 (μg/ml) SPY 8668 [9],IC90 (μg/ml) STA 29213 [10],IC90 (μg/ml) SMU 33402 [11],IC90 (μg/ml) STA 43300 [12],"IC90 ([1]; Staphylococcus aureus, ATCC25923, 24 h, read-out: IC90 (μg/ml) STA 25923)","IC90 ([7]; Enterococcus faecalis, ATCC29212, 24 h, read-out: IC90 (μg/ml) EFA 29212)",IC90 (μg/ml) STA 25923 [1],IC90 (μg/ml) STA RMETH [2],IC90 (μg/ml) EFA 29212 [7],"IC90 ([2]; Staphylococcus aureus, MRSA, 24 h, read-out: IC90 (μg/ml) STA RMETH)"
COc1nc2ccc(Br)cc2cc1C(c1ccccc1)C(O)(CCN1CCN(C)CC1)c1ccc2ccccc2c1 (racemic) [Compound 137],23.8 µg/mL,21.2 µg/mL,–,–,–,–,–,–,–,–,–,8.4 µg/mL,21.2 µg/mL,–,–
COc1nc2ccc(Br)cc2cc1C(c1ccccc1)C(O)(CCN1CCN(C)CC1)c1cc(Br)cc2ccccc12 (racemic) [Compound 151],–,–,15.4 µg/mL,–,–,–,–,–,–,–,–,–,15.4 µg/mL,–,–
COc1nc2ccc(Br)cc2cc1C(c1ccccc1)C(O)(CCN1CCN(C)CC1)c1ccc2cc(Br)ccc2c1 (racemic) [Compound 154],–,–,–,10.9 µg/mL,27.4 µg/mL,27.4 µg/mL,–,–,–,–,–,13.8 µg/mL,24.5 µg/mL,27.4 µg/mL,–

# Now from value to compound, other results behind:
IC90 (μg/ml) SPN 6305 [3],IC90 (μg/ml) PAE 27853 [4],IC90 (μg/ml) EFA 14506 [5],IC90 (μg/ml) BSU 43639 [6],IC90 (μg/ml) LMO 49594 [8],IC90 (μg/ml) SPY 8668 [9],IC90 (μg/ml) STA 29213 [10],IC90 (μg/ml) SMU 33402 [11],IC90 (μg/ml) STA 43300 [12],"IC90 ([1]; Staphylococcus aureus, ATCC25923, 24 h, read-out: IC90 (μg/ml) STA 25923)","IC90 ([7]; Enterococcus faecalis, ATCC29212, 24 h, read-out: IC90 (μg/ml) EFA 29212)",Compound,IC90 (μg/ml) STA 25923 [1],IC90 (μg/ml) STA RMETH [2],IC90 (μg/ml) EFA 29212 [7],"IC90 ([2]; Staphylococcus aureus, MRSA, 24 h, read-out: IC90 (μg/ml) STA RMETH)"
1.1 µg/mL,–,–,–,–,10.8 µg/mL,12.1 µg/mL,10.8 µg/mL,–,–,–,CCNCCC(O)(c1ccc(F)cc1F)C(c1ccccc1)c1cc2cc(Br)ccc2nc1OC (racemic) [Compound A],10.8 µg/mL,–,–,–
2.8 µg/mL,2.2 µg/mL,11.1 µg/mL,11.1 µg/mL,11.1 µg/mL,8.8 µg/mL,–,3.5 µg/mL,11.1 µg/mL,–,–,COc1nc2ccc(Br)cc2cc1C(c1ccccc1)C(O)(CCN(C)C)c1cccc2ccccc12 (centres unmarked) [Compound 13],11.1 µg/mL,–,8.8 µg/mL,–
6.2 µg/mL,5.0 µg/mL,9.9 µg/mL,11.1 µg/mL,2.5 µg/mL,2.8 µg/mL,–,12.4 µg/mL,5.6 µg/mL,9.9 µg/mL,5 µg/mL,COc1nc2ccc(Br)cc2cc1C(c1ccccc1)C(O)(CCN(C)C)c1cccc2ccccc12 (centres unmarked) [Compound 14],–,–,–,14 µg/mL
